#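 How tested: cells in 96-well plates exposed to compound for 48 hours at five concentrations. The concentration for full growth arrest is given as TGI.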
# Experiments:
# Assay in all cases: NCI-60 cell line screen, 48 h
# [1] = tested on: 786-0 renal
# [2] = tested on: A498 renal
# [3] = tested on: A549 NSCLC
# [4] = tested on: ACHN renal
# [5] = tested on: BT-549 breast
# [6] = tested on: CAKI-1 renal
# [7] = tested on: CCRF-CEM leukemia
# [8] = tested on: COLO 205 colon
# [9] = tested on: DU-145 prostate
# [10] = tested on: EKVX NSCLC
# [11] = tested on: HCC-2998 colon
# [12] = tested on: HCT-116 colon
# [13] = tested on: HCT-15 colon
# [14] = tested on: HL-60(TB) leukemia
# [15] = tested on: HOP-62 NSCLC
# [16] = tested on: HS 578T breast
# [17] = tested on: HT29 colon
# [18] = tested on: IGROV1 ovarian
# [19] = tested on: K-562 leukemia
# [20] = tested on: KM12 colon
# [21] = tested on: LOX IMVI melanoma
# [22] = tested on: M14 melanoma
# [23] = tested on: MALME-3M melanoma
# [24] = tested on: MCF7 breast
# [25] = tested on: MDA-MB-231 breast
# [26] = tested on: MDA-MB-435
# [27] = tested on: MDA-N
# [28] = tested on: MOLT-4 leukemia
# [29] = tested on: NCI-H226 lung
# [30] = tested on: NCI-H23 lung
# [31] = tested on: NCI-H460 lung
# [32] = tested on: NCI-H522 lung
# [33] = tested on: NCI/ADR-RES ovarian
# [34] = tested on: OVCAR-3 ovarian
# [35] = tested on: OVCAR-4 ovarian
# [36] = tested on: OVCAR-5 ovarian
# [37] = tested on: OVCAR-8 ovarian
# [38] = tested on: PC-3 prostate
# [39] = tested on: RPMI-8226 leukemia
# [40] = tested on: SF-268 CNS
# [41] = tested on: SF-295 CNS
# [42] = tested on: SF-539 CNS
# [43] = tested on: SK-MEL-2 melanoma
# [44] = tested on: SK-MEL-28 melanoma
# [45] = tested on: SK-MEL-5 melanoma
# [46] = tested on: SK-OV-3 ovarian
# [47] = tested on: SN12C renal
# [48] = tested on: SNB-19 CNS
# [49] = tested on: SW-620 colon
# [50] = tested on: T-47D breast
# [51] = tested on: TK-10 renal
# [52] = tested on: U251 CNS
# [53] = tested on: UACC-257 melanoma
# [54] = tested on: UACC-62 melanoma
# [55] = tested on: UO-31 renal
# [56] = tested on: RXF 393 renal
# [57] = tested on: SNB-75 CNS
compound,measurement,setting,value
CN1C2CCC1C(C(O)c1ccccc1[N+](=O)[O-])C(=O)C2 (stereo unspecified),TGI,[1],> 100 µM
same,TGI,[2],> 100 µM
same,TGI,[3],> 100 µM
same,TGI,[4],> 100 µM
same,TGI,[5],> 100 µM
same,TGI,[6],> 100 µM
same,TGI,[7],> 100 µM
same,TGI,[8],> 100 µM
same,TGI,[9],86.8 µM
same,TGI,[10],> 100 µM
same,TGI,[11],> 100 µM
same,TGI,[12],> 100 µM
same,TGI,[13],> 100 µM
same,TGI,[14],> 100 µM
same,TGI,[15],> 100 µM
same,TGI,[16],> 100 µM
same,TGI,[17],> 100 µM
same,TGI,[18],> 100 µM
same,TGI,[19],> 100 µM
same,TGI,[20],> 100 µM
same,TGI,[21],> 100 µM
same,TGI,[22],> 100 µM
same,TGI,[23],> 100 µM
same,TGI,[24],> 100 µM
same,TGI,[25],> 100 µM
same,TGI,[26],53 µM
same,TGI,[27],75.7 µM
same,TGI,[28],> 100 µM
same,TGI,[29],73.3 µM
same,TGI,[30],> 100 µM
same,TGI,[31],> 100 µM
same,TGI,[32],> 100 µM
same,TGI,[33],91.9 µM
same,TGI,[34],> 100 µM
same,TGI,[35],> 100 µM
same,TGI,[36],> 100 µM
same,TGI,[37],> 100 µM
same,TGI,[38],> 100 µM
same,TGI,[39],> 100 µM
same,TGI,[40],> 100 µM
same,TGI,[41],> 100 µM
same,TGI,[42],80.4 µM
same,TGI,[43],> 100 µM
same,TGI,[44],> 100 µM
same,TGI,[45],> 100 µM
same,TGI,[46],> 100 µM
same,TGI,[47],> 100 µM
same,TGI,[48],> 100 µM
same,TGI,[49],> 100 µM
same,TGI,[50],87.7 µM
same,TGI,[51],> 100 µM
same,TGI,[52],> 100 µM
same,TGI,[53],> 100 µM
same,TGI,[54],> 100 µM
same,TGI,[55],> 100 µM
NNC(=O)c1ccccc1Nc1ccccc1C(=O)NN,TGI,[1],> 100 µM
same,TGI,[3],> 100 µM
same,TGI,[4],> 100 µM
same,TGI,[5],> 100 µM
same,TGI,[6],> 100 µM
same,TGI,[7],> 100 µM
same,TGI,[8],> 100 µM
same,TGI,[9],> 100 µM
same,TGI,[10],> 100 µM
same,TGI,[11],> 100 µM
same,TGI,[12],> 100 µM
same,TGI,[13],> 100 µM
same,TGI,[14],> 100 µM
same,TGI,[15],> 100 µM
same,TGI,[16],> 100 µM
same,TGI,[17],> 100 µM
same,TGI,[18],> 100 µM
same,TGI,[19],> 100 µM
same,TGI,[20],> 100 µM
same,TGI,[21],> 100 µM
same,TGI,[22],> 100 µM
same,TGI,[23],> 100 µM
same,TGI,[24],> 100 µM
same,TGI,[25],> 100 µM
same,TGI,[26],> 100 µM
same,TGI,[27],> 100 µM
same,TGI,[28],> 100 µM
same,TGI,[29],> 100 µM
same,TGI,[30],> 100 µM
same,TGI,[31],> 100 µM
same,TGI,[32],> 100 µM
same,TGI,[33],> 100 µM
same,TGI,[34],> 100 µM
same,TGI,[35],> 100 µM
same,TGI,[36],> 100 µM
same,TGI,[37],> 100 µM
same,TGI,[38],> 100 µM
same,TGI,[39],> 100 µM
same,TGI,[56],> 100 µM
same,TGI,[40],> 100 µM
same,TGI,[41],> 100 µM
same,TGI,[42],> 100 µM
same,TGI,[43],> 100 µM
same,TGI,[44],> 100 µM
same,TGI,[45],> 100 µM
same,TGI,[46],> 100 µM
same,TGI,[47],> 100 µM
same,TGI,[48],> 100 µM
same,TGI,[57],> 100 µM
same,TGI,[49],> 100 µM
same,TGI,[50],> 100 µM
same,TGI,[51],> 100 µM
same,TGI,[52],> 100 µM
same,TGI,[53],> 100 µM
same,TGI,[54],> 100 µM
same,TGI,[55],> 100 µM
